Source: ChEMBL document CHEMBL1201862, “PubChem BioAssay data set” (2004)
Calls of active or inactive are those of the source.

Experiments:
[1] = cells; assay type: functional
[2] = microbe, parasite or virus in culture; assay type: functional; conditions: Mycobacterium tuberculosis
[3] = system: Vero; test: Vero cell cytotoxicity, cytotoxicity control for flavivirus capping enzyme inhibitors (AID 588742); assay type: functional; conditions: Chlorocebus sabaeus
[4] = THP-1 cell cytotoxicity, dose response, cytotoxicity control for non-replicating M. tuberculosis project (AID 489025); assay type: functional
[5] = HepG2 cell cytotoxicity, dose response, cytotoxicity control for non-replicating M. tuberculosis project (AID 489018); assay type: functional; conditions: Mycobacterium tuberculosis
[6] = Vero E6 cell cytotoxicity, dose response, cytotoxicity control for non-replicating M. tuberculosis project, secondary assay (AID 492998); assay type: functional, VeroE6; conditions: Vero C1008
[7] = target: T1, Protein skinhead-1 (Caenorhabditis elegans, UniProt P34707); assay type: functional
T1 sequence (P34707 whole entry): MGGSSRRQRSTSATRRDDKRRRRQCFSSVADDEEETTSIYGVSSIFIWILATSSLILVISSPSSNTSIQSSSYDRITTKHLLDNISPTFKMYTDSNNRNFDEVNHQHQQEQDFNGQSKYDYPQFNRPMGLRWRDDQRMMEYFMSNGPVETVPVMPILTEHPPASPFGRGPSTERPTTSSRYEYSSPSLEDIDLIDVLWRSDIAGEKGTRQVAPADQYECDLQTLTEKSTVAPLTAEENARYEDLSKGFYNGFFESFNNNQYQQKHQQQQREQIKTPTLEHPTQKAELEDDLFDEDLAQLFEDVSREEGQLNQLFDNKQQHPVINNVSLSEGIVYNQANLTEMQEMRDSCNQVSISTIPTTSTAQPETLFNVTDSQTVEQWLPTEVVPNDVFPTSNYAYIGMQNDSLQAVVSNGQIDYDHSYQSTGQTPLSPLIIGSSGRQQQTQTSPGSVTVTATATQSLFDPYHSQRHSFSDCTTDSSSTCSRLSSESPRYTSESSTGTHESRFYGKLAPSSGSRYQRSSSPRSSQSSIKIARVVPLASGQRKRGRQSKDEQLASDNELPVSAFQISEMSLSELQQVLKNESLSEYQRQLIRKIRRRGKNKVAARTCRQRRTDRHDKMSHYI

[8] = target: Protein Wnt-3a (Mus musculus, UniProt P27467); test: Wnt3a-driven reporter signaling inhibition, dose response, selectivity assay for Gli-SUFU antagonist project, Wnt-LIGHT cells, luminescence (AID 651570); assay type: functional; conditions: read-out: IC50_Mean;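 also: Wnt-LIGHT reporter cells stimulated with conditioned medium from Wnt3a-producing cells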
Sequence of Protein Wnt-3a (P27467 whole entry, the tested form may be a part): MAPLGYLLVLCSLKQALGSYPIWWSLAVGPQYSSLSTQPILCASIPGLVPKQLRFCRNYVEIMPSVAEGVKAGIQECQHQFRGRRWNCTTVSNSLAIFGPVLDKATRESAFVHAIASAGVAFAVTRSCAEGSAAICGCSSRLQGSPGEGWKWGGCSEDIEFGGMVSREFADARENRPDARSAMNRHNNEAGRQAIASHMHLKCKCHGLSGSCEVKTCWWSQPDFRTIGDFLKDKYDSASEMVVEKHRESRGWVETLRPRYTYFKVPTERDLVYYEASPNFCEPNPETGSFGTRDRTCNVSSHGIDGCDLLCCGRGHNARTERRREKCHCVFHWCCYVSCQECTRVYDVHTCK

[9] = inhibitors of clade B AD8 Env fusion, dose response, cell-based, cherry-pick (AID 652062); assay type: functional;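 also: luciferase signal from cell-cell fusion driven by HIV-1 clade B AD8 Env; potency is for inhibitors of fusion seen as a drop in luminescence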
[10] = control 3'UTR Renilla luciferase suppression, dose response, counter-screen for Shn3 inhibitor project, cell-based, Clone20-Shn3RL, cherry-picked (AID 624133); assay type: functional
[11] = HepG2 cell cytotoxicity, dose response, cytotoxicity control for Shn3 inhibitor project, CellTiter-Glo, cherry-picked (AID 624134); assay type: functional, cell-based
[12] = Shn3 3'UTR reporter inhibitors, dose response, cell-based, Clone20 osteoblasts, firefly luciferase, cherry-picked (AID 624132); assay type: functional;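 also: firefly luciferase luminescence from reporter carrying the Shn3 3'UTR in osteoblasts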
[13] = system: P388/ADR; test: cells; assay type: functional; conditions: Mus musculus
[14] = system: SN12K1; test: cells; assay type: functional; conditions: Homo sapiens
[15] = system: P388; test: cells; assay type: functional; conditions: Mus musculus
[16] = inhibitors of HIV Env-driven cell fusion, dose response, cherry-pick (AID 652057); assay type: functional, cell-based
[17] = ZM109 Env clade C HIV-1 fusion inhibitors, dose response, HeLa effector, CEM target cells, luciferase, cherry-pick (AID 652058); assay type: functional, cell-based
[18] = off-target signal loss in HeLa-CEM21 co-culture – HeLa F-luc CTL cells, cherry-picked, counter-screen for HIV-1 Env fusion inhibitor project, dose response (AID 652040); assay type: functional, cell-based;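 also: potency for signal decrease marking cytotoxic or nonspecific inhibition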
[19] = target: Heat shock protein HSP 90-alpha (Homo sapiens, UniProt P07900); assay type: functional, organism-based
[20] = target: T2, Fatty acid synthase (Homo sapiens, UniProt P49327); test: FAS thioesterase domain inhibitors, dose response, biochemical, endpoint fluorescence intensity, uHTS hits (AID 624327); assay type: functional;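 also: fluorescence from hydrolysis of an O-methyl fluorescein acyl ester substrate by the enzyme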
T2 sequence (P49327 whole entry, the tested form may be a part): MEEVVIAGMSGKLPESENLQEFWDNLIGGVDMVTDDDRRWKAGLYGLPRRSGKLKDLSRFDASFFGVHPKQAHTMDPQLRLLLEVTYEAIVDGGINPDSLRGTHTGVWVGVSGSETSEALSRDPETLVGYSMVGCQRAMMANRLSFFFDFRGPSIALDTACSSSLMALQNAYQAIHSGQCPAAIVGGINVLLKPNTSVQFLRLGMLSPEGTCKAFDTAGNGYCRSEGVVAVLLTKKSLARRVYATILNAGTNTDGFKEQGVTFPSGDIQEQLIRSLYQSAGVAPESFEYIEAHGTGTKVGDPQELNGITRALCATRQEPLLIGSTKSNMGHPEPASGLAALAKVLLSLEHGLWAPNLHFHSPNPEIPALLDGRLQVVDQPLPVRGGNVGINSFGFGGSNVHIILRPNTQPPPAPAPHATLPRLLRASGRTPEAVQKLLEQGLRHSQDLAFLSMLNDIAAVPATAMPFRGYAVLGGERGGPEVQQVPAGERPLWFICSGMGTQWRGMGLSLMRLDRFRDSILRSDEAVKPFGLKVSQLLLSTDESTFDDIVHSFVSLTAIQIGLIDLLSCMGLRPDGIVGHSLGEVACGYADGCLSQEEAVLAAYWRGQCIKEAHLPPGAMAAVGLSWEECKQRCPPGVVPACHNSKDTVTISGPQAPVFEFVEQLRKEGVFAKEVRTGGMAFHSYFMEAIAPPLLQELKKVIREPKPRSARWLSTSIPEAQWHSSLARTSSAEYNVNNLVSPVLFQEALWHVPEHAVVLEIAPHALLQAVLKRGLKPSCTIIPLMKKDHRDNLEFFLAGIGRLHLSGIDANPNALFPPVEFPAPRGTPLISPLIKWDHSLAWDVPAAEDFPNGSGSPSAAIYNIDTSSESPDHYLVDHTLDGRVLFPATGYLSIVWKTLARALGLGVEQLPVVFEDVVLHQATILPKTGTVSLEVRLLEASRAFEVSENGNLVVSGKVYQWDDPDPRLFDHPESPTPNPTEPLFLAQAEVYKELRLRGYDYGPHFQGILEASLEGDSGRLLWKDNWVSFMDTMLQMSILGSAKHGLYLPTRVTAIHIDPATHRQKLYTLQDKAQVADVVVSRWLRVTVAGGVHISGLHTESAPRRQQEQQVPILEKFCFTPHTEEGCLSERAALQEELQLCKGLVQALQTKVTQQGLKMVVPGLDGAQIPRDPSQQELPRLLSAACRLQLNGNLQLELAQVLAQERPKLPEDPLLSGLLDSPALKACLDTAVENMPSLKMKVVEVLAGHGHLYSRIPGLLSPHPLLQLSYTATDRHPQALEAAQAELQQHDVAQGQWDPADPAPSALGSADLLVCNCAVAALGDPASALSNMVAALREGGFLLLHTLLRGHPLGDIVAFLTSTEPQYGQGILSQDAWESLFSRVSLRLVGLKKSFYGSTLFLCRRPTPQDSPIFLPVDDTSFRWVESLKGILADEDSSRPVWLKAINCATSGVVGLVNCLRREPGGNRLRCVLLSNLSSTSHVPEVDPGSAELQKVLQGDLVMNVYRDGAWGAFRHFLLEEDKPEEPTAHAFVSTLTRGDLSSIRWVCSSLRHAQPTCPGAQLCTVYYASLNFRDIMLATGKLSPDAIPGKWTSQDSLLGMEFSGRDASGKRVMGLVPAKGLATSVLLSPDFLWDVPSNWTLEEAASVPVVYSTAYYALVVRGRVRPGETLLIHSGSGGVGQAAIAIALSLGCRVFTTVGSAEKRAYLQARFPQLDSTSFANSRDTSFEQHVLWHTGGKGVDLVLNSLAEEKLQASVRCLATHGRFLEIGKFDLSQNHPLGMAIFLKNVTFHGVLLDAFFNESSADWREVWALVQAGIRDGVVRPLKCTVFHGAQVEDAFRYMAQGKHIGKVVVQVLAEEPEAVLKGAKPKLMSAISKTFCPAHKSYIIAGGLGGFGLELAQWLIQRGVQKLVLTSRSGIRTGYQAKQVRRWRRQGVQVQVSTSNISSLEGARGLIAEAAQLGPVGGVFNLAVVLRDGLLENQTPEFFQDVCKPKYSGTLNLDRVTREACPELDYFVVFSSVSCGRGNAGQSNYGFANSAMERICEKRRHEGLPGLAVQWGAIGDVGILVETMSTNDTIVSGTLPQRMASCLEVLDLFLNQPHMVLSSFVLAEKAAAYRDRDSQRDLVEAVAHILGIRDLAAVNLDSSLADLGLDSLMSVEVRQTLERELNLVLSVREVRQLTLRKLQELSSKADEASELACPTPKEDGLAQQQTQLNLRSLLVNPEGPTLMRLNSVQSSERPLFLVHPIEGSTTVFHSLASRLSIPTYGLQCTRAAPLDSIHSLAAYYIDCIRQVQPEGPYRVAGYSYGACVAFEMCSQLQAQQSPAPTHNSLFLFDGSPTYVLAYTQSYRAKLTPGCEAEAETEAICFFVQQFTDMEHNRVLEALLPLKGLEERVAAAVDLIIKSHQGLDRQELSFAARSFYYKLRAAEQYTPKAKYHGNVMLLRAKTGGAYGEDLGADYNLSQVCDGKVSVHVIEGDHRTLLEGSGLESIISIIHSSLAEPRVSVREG

[21] = target: T2, Fatty acid synthase; test: FAS thioesterase domain inhibitors, dose response, biochemical, kinetic fluorescence intensity (AID 624326); assay type: functional;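 also: rate of fluorescence rise from hydrolysis of a fluorogenic O-methyl fluorescein ester substrate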
[22] = cytotoxicity in HEK-293T cells, dose response, cytotoxicity control for TCR NF-kB inhibitor project, luminescence, T-cell screen hits (AID 489026); assay type: functional, cell-based;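 also: cells exposed to compound about 14 hours before the viability readout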

C/C(=N\NC(=O)c1cc2ccccc2cc1O)c1ccc(C)o1
IC50 [1]: 6.26 µM (active) | CC50 [2]: 22.7 µM (active) | CC50 [3]: 32 µM (active) | CC50 [4]: 21.9 µM (active) | CC50 [5]: > 20 µM (active) | CC50 [6]: 16 µM (active)

O=C(O)c1ccc(S(=O)(=O)c2ccccc2)cc1
IC50 [7]: > 100 µM (inactive)

O=C(Cc1ccc(Cl)cc1Cl)Nc1ccncc1
IC50 [8]: 3.6 µM (active) | AC50 [9]: 9.95 µM (active) | AC50 [10]: 6.34 µM (active) | AC50 [11]: 42.9 µM (active) | AC50 [12]: 2.56 µM (active)

O=NN(CCCl)C(=O)N[C@H]1CC[C@H](CC(=O)O)CC1
GI50 [13]: 3.97 µM (inactive) | GI50 [14]: 69 µM (inactive) | GI50 [15]: 3.73 µM (inactive)

CC1(C(=O)N/N=C/c2cc3c(cc2Br)OCO3)CC1(Br)Br (stereo not drawn)
AC50 [9]: 15.2 µM (active) | AC50 [16]: 3.9 µM (active) | AC50 [17]: 2.59 µM (active) | AC50 [18]: 9.4 µM (active)

C=CCn1c(C)cc(C(=O)CSc2nc(O)c3ccccc3n2)c1C
AC50 [19]: 2.6 µM (active)

S=P1(Sc2ccccc2)Oc2ccc3ccccc3c2-c2c(ccc3ccccc23)O1
GI50 [13]: > 100 µM (inactive) | GI50 [14]: > 100 µM (inactive) | GI50 [15]: > 100 µM (inactive)

Cc1ccc(O)c(NC(=O)c2cc([N+](=O)[O-])ccc2Cl)c1
IC50 [20]: 13.4 µM (active) | IC50 [21]: 15.8 µM (active)

COc1ccc(OCC(=O)Nc2ccccc2N2CCCCC2)cc1
AC50 [9]: 33.4 µM (active) | IC50 [22]: > 80 µM (inactive)

Cc1ccc(/C=C/c2nc3ccccc3[nH]2)o1
CC50 [3]: > 40 µM (active)

Cn1c(=O)c2c(nc(NCCOc3ccc(C(C)(C)C)cc3)n2C)n(C)c1=O
IC50 [8]: 1.2 µM (active)

Cc1ccc([N+](=O)[O-])cc1NC(=O)CCc1ccccc1
IC50 [20]: 14 µM (active) | IC50 [21]: 17.5 µM (active)

O=[N+]([O-])c1ccc(C(O)C(CO)N=C(S)Nc2ccccc2)cc1 (stereo not drawn)
IC50 [20]: 20.8 µM (inactive) | IC50 [21]: 24.8 µM (inactive)
